Read-outs that look alike come from different tables or passages of the source. One block for each compound: values may come before it. Where a SMILES comes first, the peptide text is derived from it.
Tests used:
Assay in all cases: microscale thermophoresis
Format in all cases: binding
[1] = target: T1, orotate phosphoribosyltransferase (PyrE) (Escherichia coli, UniProt P0A7E3)
T1 sequence (P0A7E3 2-213): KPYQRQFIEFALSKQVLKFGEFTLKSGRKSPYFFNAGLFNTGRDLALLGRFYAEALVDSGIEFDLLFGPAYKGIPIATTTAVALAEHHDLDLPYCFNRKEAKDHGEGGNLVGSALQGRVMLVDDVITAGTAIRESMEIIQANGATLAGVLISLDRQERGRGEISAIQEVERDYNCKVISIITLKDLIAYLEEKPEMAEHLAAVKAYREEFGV

FabF = target: T2, FabF (Escherichia coli, UniProt P0AAI5)
T2 sequence (P0AAI5 2-413): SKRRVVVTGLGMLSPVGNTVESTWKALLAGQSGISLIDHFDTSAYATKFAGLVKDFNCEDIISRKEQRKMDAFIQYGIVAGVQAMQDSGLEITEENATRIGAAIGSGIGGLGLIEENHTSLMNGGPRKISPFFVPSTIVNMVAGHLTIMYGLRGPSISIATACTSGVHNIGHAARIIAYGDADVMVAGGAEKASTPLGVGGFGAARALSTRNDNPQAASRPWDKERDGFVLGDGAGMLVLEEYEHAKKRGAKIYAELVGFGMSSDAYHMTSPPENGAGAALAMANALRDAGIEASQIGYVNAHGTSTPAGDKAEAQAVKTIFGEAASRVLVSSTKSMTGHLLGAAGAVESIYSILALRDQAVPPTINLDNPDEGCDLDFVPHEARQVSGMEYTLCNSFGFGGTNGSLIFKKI

[2] = target: T1, orotate phosphoribosyltransferase (PyrE); remark: listed apart in the source

Kd [1]: 90.3 µM
Structure (SMILES): Cc1cc2nc3[nH]c(=O)[nH]c(=O)c3nc2cc1C [lumichrome]

Kd (FabF): 12 to 14 µM
Structure (SMILES): CC(C)CC(NC(=O)C(N)C(C)C)C(=O)O (stereo not drawn) [Val-Leu] (H-Val-Leu-OH; configuration not given here)

Kd [2]: 8.21 µM
Structure (SMILES): O=P(O)(O)OC[C@H]1O[C@H](OP(=O)(O)OP(=O)(O)O)[C@H](O)[C@@H]1O [PRPP]

From publication PMC12148380 (iScience, 2025)
